Reference: BigSolDB 2.1

Cc1nc(N)nc(N)n1
solubility (mole fraction)
Details	283.15 K	288.15 K	293.15 K	298.15 K	303.15 K	308.15 K	313.15 K	318.15 K	323.15 K
in 1,4-dioxane	0.000584	0.000676	0.000782	0.000899	0.00107	0.00126	0.00152	0.00177	0.00205
in DMF	0.00103	0.0012	0.00133	0.00151	0.0018	0.00209	0.00247	0.00283	0.00325
in acetonitrile	9.52e-05	0.000117	0.000141	0.00018	0.000228	0.000287	0.000345	0.000426	0.000523
in ethanol	0.000226	0.000258	0.000315	0.000386	0.000485	0.000592	0.000688	0.000845	0.000999
in ethyl acetate	0.000671	0.00078	0.000928	0.00104	0.00125	0.00142	0.00171	0.00198	0.00229
in ethylene glycol	0.000797	0.000935	0.00109	0.00121	0.00145	0.00164	0.00193	0.00225	0.00259
in isobutanol	0.000392	0.000454	0.000551	0.000663	0.000792	0.000931	0.0011	0.00127	0.00153
in isopropanol	0.00027	0.000325	0.000393	0.00047	0.000587	0.000698	0.000808	0.000973	0.00115
in methanol	0.000159	0.000192	0.000235	0.000289	0.000365	0.000434	0.000553	0.000636	0.000782
in n-butanol	0.000477	0.000536	0.00064	0.000764	0.000919	0.00111	0.00131	0.0015	0.00177
in n-propanol	0.000321	0.000385	0.000452	0.00054	0.000689	0.000836	0.000985	0.00115	0.00132
in water	0.000122	0.000146	0.000182	0.000228	0.000285	0.000362	0.000426	0.000521	0.000633
